Results on 49 compounds are retold here after patent US6372779B1, “Anti-inflammatory compounds” (Ortho Pharmaceutical Corporation, priority 1997, dated 2002).

SMILES strings stand for the structures. Entries after “also recorded” stand apart in the source; their conditions may differ.

The subject of series [1] is oxazolone-induced ear swelling in CD-1 mice. Briefly: mouse oxazolone-induced contact hypersensitization (MOCH), ear swelling. Format: in vivo. Conditions: for inhibition in vivo at 1 mg: topical to ear, mouse, 24 hours after oxazolone challenge, read-out: Oxazolone Ear Swelling (MOCH) % inhibition vs. Vehicle at 1 mg; for topical antiinflammatory activity in the oxazolone model (in words): mouse ear. How it is done:
Several triphenylpropanamide compounds of this invention, having varying affinities for the human glucocorticoid receptor, were tested for topical antiinflammatory activity in mouse ear inflammation models. […] Compounds having receptor affinities closer to hydrocortisone were as nearly active as hydrocortisone in suppressing mouse oxazolone-induced contact hypersensitization (MOCH) and phorbol ester-induced ear edema. The in vivo studies of this example were conducted as follows.
In determining the MOCH using the compounds of this invention, albino male CD-1 mice, 7-9 weeks old were induced on the shaved abdomen with 50 μl of 3% oxazolone in acetone/corn oil (Day 0). On Day 5, a 20 μl volume of 2% oxazolone in acetone was applied to the dorsal left ear of the mouse. Compounds (made in ethanol/propylene glycol, 70:30) were applied to the left ear in 20 μl volume, one hour after oxazolone challenge. The right ear was not treated. The mice were sacrificed by carbon dioxide inhalation 24 hours after oxazolone challenge, the left and right ears were removed and a 7 mm biopsy was removed from each ear and weighed. The difference in biopsy weights between the right and left ears was calculated. Antiinflammatory effects of compounds were evident as an inhibition of the increase in ear weight.

The melting point is the temperature of the solid-liquid transition. Compound `O=C(NCC1(c2ccccc2)CC1(c1ccccc1)c1ccccc1)Oc1ccccc1` (stereo not drawn) [Compound 96] showed a melting point of 146 to 147 °C. Also, the inhibition in vivo at 1 mg in series [1] amounted to 52%. The corresponding values for `O=C(NCC(c1ccccc1)C(c1ccccc1)c1ccccc1)c1ccsc1` (stereo not drawn) [Compound 42] are 153.5 to 154.7 °C and 27%. With `Cc1ccc(S(=O)(=O)NCC(c2ccccc2)C(c2ccccc2)c2ccccc2)cc1` (stereo not drawn) [Compound 26], the melting point lay within 139.7 to 142.1 °C. The inhibition in vivo at 1 mg in series [1] was -5%.

Compound `CC(C)(C)C(=O)NCC(c1ccccc1)C(c1ccccc1)c1ccccc1` (stereo not drawn) [Compound 64] returned a melting point of 143 to 144 °C. In series [1], the inhibition in vivo at 1 mg was found to be 26%. Consider `O=S(=O)(NCC(c1ccc(Cl)cc1)C(c1ccccc1)c1ccccc1)c1cccs1` (stereo not drawn) [Compound 41], for which the melting point fell in the range of 180.4 to 181.9 °C. Moreover, in series [1], the inhibition in vivo at 1 mg came out at 3%. The like results for `O=S(=O)(Cc1ccccc1)NCC(c1ccccc1)C(c1ccccc1)c1ccccc1` (stereo not drawn) [Compound 25] were, in that order, 172.9 to 174.2 °C and 9%. The like results for `O=C(Cc1ccccn1)NCC(c1ccccc1)C(c1ccccc1)c1ccccc1` (stereo not drawn) [Compound 49] were, in that order, 120.1 to 121.7 °C and 20%.

Compound `CCOC(=O)CC(=O)NCC(c1ccccc1)C(c1ccccc1)c1ccccc1` (stereo not drawn) [Compound 65] yielded a melting point of 103 to 105.5 °C. Besides, the inhibition in vivo at 1 mg in series [1] was 13%. The like results for `O=C(C=Cc1ccsc1)NCC(c1ccccc1)C(c1ccccc1)c1ccccc1` (stereo not drawn) [Compound 39] were, in that order, 204.8 to 206.5 °C and 24%. The corresponding values for `O=C(Cc1ccccc1Cl)NCC(c1ccccc1)C(c1ccccc1)c1ccccc1` (stereo not drawn) [Compound 2] are 140.5 to 141.2 °C and 4%. `O=C(NCC(c1ccccc1)C(c1ccccc1)c1ccccc1)Nc1ccccc1Cl` (stereo not drawn) [Compound 52]: the melting point lay within 210 to 211 °C. The compound `O=C(Cc1ccsc1)NCC(c1ccccc1)C1c2ccccc2CCc2ccccc21` (stereo not drawn) [Compound 76] displayed a melting point of 167.3 to 169.3 °C. In addition, the inhibition in vivo at 1 mg in series [1] came out at 23%.

Compound `O=C(Cc1ccc(Cl)c(Cl)c1)NCC(c1ccccc1)C(c1ccccc1)c1ccccc1` (stereo not drawn) [Compound 9] yielded a melting point of 65 to 68 °C. Further, in series [1], the inhibition in vivo at 1 mg is 18%. On to `O=C(CCCc1cccs1)NCC(c1ccccc1)C(c1ccccc1)c1ccccc1` (stereo not drawn) [Compound 37], for which the melting point was 105.5 to 106.9 °C. Besides, the inhibition in vivo at 1 mg in series [1] was determined as 25%. The like results for `O=C(NCC1(c2ccccc2)CC1(c1ccccc1)c1ccccc1)c1cccs1` (stereo not drawn) [Compound 90] were, in that order, 152.5 to 155 °C and 65%.

With `CC(C)C(=O)NCC(c1ccccc1)C(c1ccccc1)c1ccccc1` (stereo not drawn) [Compound 61], the melting point lay within 114 to 115 °C. For the same compound, the inhibition in vivo at 1 mg in series [1] was 17%. In turn, `O=C(NCC1(c2ccccc2)CC1(c1ccccc1)c1ccccc1)Oc1ccc(Cl)cc1` (stereo not drawn) [Compound 97] gave a melting point of 171 to 172 °C. Also, in series [1], the inhibition in vivo at 1 mg amounted to 50%. The like results for `Cc1ccc(C(=O)NCC(c2ccccc2)C2c3ccccc3CCc3ccccc32)s1` (stereo not drawn) [Compound 77] were, in that order, 172.1 to 173 °C and 41%. The like results for `CCCCC(=O)NCC(c1ccccc1)C(c1ccccc1)c1ccccc1` (stereo not drawn) [Compound 62] were, in that order, 78 to 79 °C and 36%. Compound `Cc1ccc(CC(=O)NCC(c2ccccc2)C(c2ccc(F)cc2)c2ccc(F)cc2)s1` (stereo not drawn) [Compound 32] returned a melting point of 127.9 to 128.9 °C. For the same compound, in series [1], the inhibition in vivo at 1 mg was 83% and the “topical antiinflammatory activity in the oxazolone model (in words)” value (“topical antiinflammatory activity” for short) was “equiactive with hydrocortisone; also recorded: inhibited ear swelling in a dose-dependent manner”. For `O=C(NCC(c1ccccc1)C(c1ccccc1)c1ccccc1)c1cccs1` (stereo not drawn) [Compound 45], the melting point lay in the range of 139 to 142 °C. In series [1], the inhibition in vivo at 1 mg turned out to be 31%. `O=C(Cc1ccccc1)NCC1(c2ccccc2)CC1(c1ccccc1)c1ccccc1` (stereo not drawn) [Compound 78]: the melting point was in the range of 150 to 152 °C.

With `Cc1ccc(C(=O)NCC2(c3ccccc3)CC2(c2ccccc2)c2ccccc2)s1` (stereo not drawn) [Compound 91], the melting point was in the range of 168 to 170.5 °C. Further, in series [1], the inhibition in vivo at 1 mg came out at 13%. Turning to `O=C(Cc1ccsc1)NCC1(c2ccccc2)CC1(c1ccccc1)c1ccccc1` (stereo not drawn) [Compound 89], the melting point is 130 to 135 °C. For the same compound, the inhibition in vivo at 1 mg in series [1] came to 16%. For `O=C(CCCc1ccccc1)NCC(c1ccccc1)C(c1ccccc1)c1ccccc1` (stereo not drawn) [Compound 24], the melting point fell in the range of 78.1 to 81 °C. The inhibition in vivo at 1 mg in series [1] was 21%. The corresponding values for `O=C(NCc1ccccc1)NCC(c1ccccc1)C(c1ccccc1)c1ccccc1` (stereo not drawn) [Compound 54] are 170 to 171 °C and 10%.

Consider `O=C(Cc1cccs1)NCC(c1ccccc1)C(c1ccc(F)cc1)c1ccc(F)cc1` (stereo not drawn) [Compound 31], for which the melting point is 84.9 to 85.3 °C. Moreover, in series [1], the inhibition in vivo at 1 mg came out at 14%. `O=C(NCC(c1ccccc1)C(c1ccccc1)c1ccccc1)Nc1ccccc1F` (stereo not drawn) [Compound 53] showed a melting point of 190 to 191 °C. Further, in series [1], the inhibition in vivo at 1 mg came to 24%. For the compound `O=C(NCC1(c2ccccc2)CC1(c1ccccc1)c1ccccc1)C(c1ccccc1)c1ccccc1` (stereo not drawn) [Compound 82], the melting point is 166 to 169 °C. Besides, in series [1], the inhibition in vivo at 1 mg turned out to be 23%. `O=C(Cc1c[nH]c2ccccc12)NCC(c1ccccc1)C(c1ccccc1)c1ccccc1` (stereo not drawn) [Compound 47]: the melting point lay in the range of 89 to 93 °C. Further, the inhibition in vivo at 1 mg in series [1] is 51%. Take `O=C(Cc1ccccc1)NCC(c1ccccc1)C(c1ccc(F)cc1)c1ccc(F)cc1` (stereo not drawn) [Compound 15]: the “topical antiinflammatory activity” value in series [1] was “moderate topical activity”.

`O=C(NCC1(c2ccccc2)CC1(c1ccccc1)c1ccccc1)Nc1ccccc1` (stereo not drawn) [Compound 92] displayed a melting point of 209 to 210 °C. Further, the inhibition in vivo at 1 mg in series [1] is 42%. The like results for `O=C(CCc1ccccc1)NCC(c1ccccc1)C(c1ccccc1)c1ccccc1` (stereo not drawn) [Compound 19] were, in that order, 107.4 to 109 °C and 2%. `O=C(Cc1ccccc1)NCC(c1ccccc1)C1c2ccccc2CCc2ccccc21` (stereo not drawn) [Compound 73] came in with a melting point of 172.7 to 174.6 °C. Regarding `CC(C)CC(=O)NCC(c1ccccc1)C(c1ccccc1)c1ccccc1` (stereo not drawn) [Compound 63], the melting point was 112 to 113 °C. Besides, the inhibition in vivo at 1 mg in series [1] was determined as 3%. The like results for `O=C(Cc1cccs1)NCC(c1ccc(Cl)cc1)C(c1ccccc1)c1ccccc1` (stereo not drawn) [Compound 34] were, in that order, 126.3 to 127 °C and 29%. The like results for `Cc1ccc(C(=O)NCC(c2ccccc2)C(c2ccccc2)c2ccccc2)s1` (stereo not drawn) [Compound 30] were, in that order, 183.5 to 185 °C and 21%.

Turning to `O=C(Cc1ccc(Cl)cc1)NCC(c1ccc2c(c1)OCO2)C(c1ccccc1)c1ccccc1` (stereo not drawn) [Compound 98], in series [1], the “topical antiinflammatory activity” value is “equiactive with hydrocortisone”. In turn, `COc1ccc(CC(=O)NCC2(c3ccccc3)CC2(c2ccccc2)c2ccccc2)cc1OC` (stereo not drawn) [Compound 79] came in with a melting point of 131 to 133.5 °C. The inhibition in vivo at 1 mg in series [1] turned out to be 18%. In turn, `O=C(NCC(c1ccccc1)C(c1ccccc1)c1ccccc1)Oc1ccc(F)cc1` (stereo not drawn) [Compound 58] returned a melting point of 150 to 151 °C. Further, in series [1], the inhibition in vivo at 1 mg was determined as 16%.

Regarding `O=C(NCC(c1ccccc1)C(c1ccccc1)c1ccccc1)C(c1ccccc1)c1ccccc1` (stereo not drawn) [Compound 13], the melting point was 178.7 to 179.8 °C. The inhibition in vivo at 1 mg in series [1] is 10%. `Cc1ccc(CC(=O)NCC(c2ccccc2)C(c2ccccc2)c2ccccc2)cc1` (stereo not drawn) [Compound 4] registered a melting point of 142.3 to 143.6 °C. For the same compound, the inhibition in vivo at 1 mg in series [1] stood at 1%. The compound `O=C(Cc1cccs1)NCC(c1ccccc1)C1c2ccccc2-c2ccccc21` (stereo not drawn) [Compound 71] displayed a melting point of 128.7 to 130.5 °C. Same read-out and setting: to `O=C(Cc1ccc(Cl)cc1)NCC(c1ccccc1)C(c1ccccc1)c1ccccc1` (stereo not drawn) [Compound 3] belongs 168.4 to 170.9 °C; to `O=C(NCC(c1ccccc1)C(c1ccccc1)c1ccccc1)Oc1ccc2ccccc2c1` (stereo not drawn) [Compound 59], 151 to 152 °C. As for `CC(C)(C)C(=O)NCC1(c2ccccc2)CC1(c1ccccc1)c1ccccc1` (stereo not drawn) [Compound 86], the melting point is 121 to 122 °C. Compound `COc1ccc(CC(=O)NCC(c2ccccc2)C(c2ccccc2)c2ccccc2)cc1OC` (stereo not drawn) [Compound 7] displayed a melting point of 123 to 124.5 °C. With `C[C@]12CCC(=O)C=C1CC[C@@H]1[C@@H]2[C@@H](O)C[C@@]2(C)[C@H]1CC[C@]2(O)C(=O)CO` [hydrocortisone, reference compound], the inhibition in vivo at 1 mg in series [1] fell in the range of 75 to 85%.

`O=C(Cc1c(Cl)cccc1Cl)NCC(c1ccccc1)C(c1ccccc1)c1ccccc1` (stereo not drawn) [Compound 8] came in with a melting point of 165.2 to 166.5 °C.
